In general, IC50 refers to the concentration needed to halve the response being measured. A word on the melting point: it is the temperature, or range, at which the solid turns liquid.

The target in one data set is T1, human recombinant CCR4 receptor (Homo sapiens, UniProt P51679).
T1 construct: Brussels, Belgium; host or cells: CHO-K1
T1 sequence (P51679 1-360): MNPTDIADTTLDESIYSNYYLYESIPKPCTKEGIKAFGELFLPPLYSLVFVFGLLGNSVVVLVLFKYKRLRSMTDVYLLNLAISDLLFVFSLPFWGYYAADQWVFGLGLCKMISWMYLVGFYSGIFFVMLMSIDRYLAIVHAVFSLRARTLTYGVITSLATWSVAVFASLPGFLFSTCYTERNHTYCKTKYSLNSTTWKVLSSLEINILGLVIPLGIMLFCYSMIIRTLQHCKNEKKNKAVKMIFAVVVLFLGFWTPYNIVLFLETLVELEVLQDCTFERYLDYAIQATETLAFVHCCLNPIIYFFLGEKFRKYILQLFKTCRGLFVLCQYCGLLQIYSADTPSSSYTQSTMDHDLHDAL
The data set can be described thus: FMAT Whole Cell Binding Assay (FB-MDC binding to CHO-K1 cells expressing CCR4). To be noted: CHO-K1 cells stably expressing human recombinant CCR4; inhibition of FB-MDC fluorescent probe binding, two hours incubation at room temperature. The procedure:
FMAT Whole Cell Binding Assay
CHO-K1 cells stably expressing the human recombinant CCR4 receptor (Euroscreen; Brussels, Belgium) were cultured in NUT.MIX.F—12(HAM) medium with glutamax-1, containing 10% (v/v) foetal bovine serum and 400 μg ml^−1 geneticin.
Cells were harvested at approximately 70% confluence by treatment with a cell dissociation buffer, and seeded at 5×10^3 cells/100 μl culture medium into wells of a black Costar clear-bottomed 96-well microtitre plates. Plates were incubated overnight at 37° C. in 5% CO2 and used the following day.
Before use, the cell plates were washed twice with 100 μl Hanks balanced salt solution (HBSS). To each well was then added 65 μl of HBSS, 10 μL of 10% DMSO in HBSS±test compound and then 25 μL of 2.8 nM FB-MDC (Applied Biosystems). This fluorescent probe was prepared from a 10 μM stock in 0.08% (v/v) TFA/16% (v/v) acetonitrile, diluted into HBSS.
After two hours incubation in the dark at room temperature, the plates were analysed in an FMAT8100 reader (Applied Biosystems) to measure fluorescence that was associated with binding of FB-MDC to the cells. Compound activity was determined as an pIC50 [log(concentration of compound that results in 50% inhibition)], comparing fluorescence in control and background wells.
• Fluorescence (ctrl)=1200 • Fluorescence (bkg)=0
As for `COc1nc(Br)cnc1NS(=O)(=O)c1ccc(Cl)s1` [Example 1, N-(5-Bromo-3-methoxy-2-pyrazinyl)-5-chloro-2-thiophenesulphonamide], the IC50 was 39.8 nM.
The same measure, in the same setting: with `Cc1cnc(NS(=O)(=O)c2ccc(Cl)s2)c(OCc2cccnc2)n1` [Example 23, 5-Chloro-N-[5-methyl-3-(3-pyridinylmethoxy)-2-pyrazinyl]-2-thiophenesulphonamide] the figure was 10 nM; with `COCCOc1nc(Br)cnc1NS(=O)(=O)c1ccc(Cl)s1` [Example 16, 5-Chloro-N-[5-bromo-3-(2-methoxyethoxy)-2-pyrazinyl]-2-thiophenesulphonamide], 631 nM.

Test system in the next data set: not given
Test: not given
Conditions: not given
In the case of `COc1nc(C#N)cnc1NS(=O)(=O)c1ccc(Cl)s1` [Example 31, 5-Chloro-N-[5-cyano-3-methoxy-2-pyrazinyl]-2-thiophenesulphonamide], the melting point lay in the range of 218 to 219 °C.
Regarding `Cc1cc(COc2ncc(Cl)nc2NS(=O)(=O)c2ccc(Cl)s2)no1` [Example 21, 5-Chloro-N-[6-chloro-3-(5-methyl-3-isoxazolylmethoxy)2-pyrazinyl]-2-thiophenesulphonamide], the melting point lay within 141 to 142 °C.
`COc1nc(C)c(C)nc1NS(=O)(=O)c1ccc(Cl)s1` [Example 27, 5-Chloro-N-(5,6-dimethyl-3-methoxy-2-pyrazinyl)-2-thiophenesulphonamide] came in with a melting point of 95 to 96 °C.
Still for that read-out and setting: then `COc1nccnc1NS(=O)(=O)c1ccc(Cl)s1` [Example 26, 5-Chloro-N-(3-methoxy-2-pyrazinyl)-2-thiophenesulphonamide], with 119 to 120 °C; and `O=S(=O)(Nc1nccnc1OCc1ccccn1)c1ccc(Cl)s1` [Example 25, 5-Chloro-N-[3-(2-pyridinylmethoxy)-2-pyrazinyl]-2-thiophenesulphonamide], with 109 to 110 °C.
On the same count and under the same terms, with `O=S(=O)(Nc1nc(Cl)cnc1OCc1ccccn1)c1ccc(Cl)s1` [Example 22] the figure was 171 to 172 °C.
On the same count and under the same terms, with `O=S(=O)(Nc1nc(Cl)cnc1OCc1ccco1)c1ccc(Cl)s1` [Example 20, 5-Chloro-N-[6 chloro-3-(2-furanylmethoxy)-2-pyrazinyl]-2-thiophenesulphonamide] the figure was 130 to 133 °C; with `Cc1cnc(NS(=O)(=O)c2ccc(Cl)s2)c(OCc2cccnc2)n1` [Example 23, 5-Chloro-N-[5-methyl-3-(3-pyridinylmethoxy)-2-pyrazinyl]-2-thiophenesulphonamide], 204 to 205 °C.
The compound `Cc1cnc(NS(=O)(=O)c2ccc(Cl)s2)c(OCc2cccnn2)n1` [Example 24, 5-Chloro-N-[5-methyl-3-(3-pyridazinylmethoxy)-2-pyrazinyl]-2-thiophenesulphonamide] displayed a melting point of 179 to 181 °C.
On the same count and under the same terms, with `COc1nc(SCCN)cnc1NS(=O)(=O)c1ccc(Cl)s1` [Example 30, N-[5-{(2-Aminoethyl)sulpanyl}-3-methoxy-2-pyrazinyl]-5-chloro-2-thiophenesulphonamide] the figure was 192 to 194 °C.
